Columns and labels:
Assay in all cases: cells
Set-up in all cases: species or system panel of human cancer cell lines; Eurofins OncoPanel proliferation; nuclei count by high-content fluorescence imaging, 10-point dose response
[1] = system: FaDu; settings: Homo sapiens, FaDu, 72 h, cell count, 3 days
How it was run: (§1)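 Cells in RPMI 1640/10% FBS or special medium received compound the day after seeding, with a time-zero plate; 3-day incubation at 37°C, 5% CO2. Nuclei imaged by fluorescence microscopy; 10 half-log doses from 100 μM, 0.1% DMSO. EC50, IC50, GI50 and activity area (0–10) from curve fits.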

[2] = system: CRO-AP2; settings: Homo sapiens, CRO-AP2, 72 h, cell count, 3 days
How it was run: as §1

[3] = system: Caki-2; settings: Homo sapiens, CAKI-2, 72 h, cell count, 3 days
How it was run: as §1

[4] = system: CaOV3; settings: Homo sapiens, Caov-3, 72 h, cell count, 3 days
How it was run: as §1

[5] = system: Hs 888.Sk; settings: 72 h, cell count, 3 days
How it was run: as §1

[6] = system: DK-MG; settings: 72 h, cell count, 3 days
How it was run: as §1

[7] = system: A375; settings: Homo sapiens, A-375, 72 h, cell count, 3 days
How it was run: as §1

[8] = system: LS513; settings: Homo sapiens, LS-513, 72 h, cell count, 3 days
How it was run: as §1

[9] = system: MT-3; settings: MT-3, 72 h, cell count, 3 days
How it was run: as §1

[10] = system: SKO-007; settings: SKO-007, 72 h, cell count, 3 days
How it was run: as §1

[11] = system: HT1376; settings: Homo sapiens, HT-1376, 72 h, cell count, 3 days
How it was run: as §1

[12] = system: CML-T1; settings: CML-T1, 72 h, cell count, 3 days
How it was run: as §1

[13] = system: Hs 852.T; settings: 72 h, cell count, 3 days
How it was run: as §1

[14] = system: DMS114; settings: Homo sapiens, DMS-114, 72 h, cell count, 3 days
How it was run: as §1

[15] = 50% of maximum possible response

For C[C@@H]1CC(=O)NN=C1c1ccc(NN=C(C#N)C#N)cc1 [levosimendan], which IC50 [1, 15] is on record?
The IC50 was 63.1 µM.

And the GI50 ([1]; corrected for time zero)?
The GI50 was 56.4 µM.

And the EC50 ([1]; curve inflection point)?
The EC50 was 63.1 µM.

And the IC50 [2, 15]?
Its IC50 is 10.3 µM.

And the GI50 ([2]; corrected for time zero)?
Its GI50 is 8.29 µM.

And the EC50 ([2]; curve inflection point)?
The EC50 was 9.97 µM.

What about the IC50 [3, 15] of the same compound?
The IC50 was over 100 µM.

And the GI50 ([3]; corrected for time zero)?
The GI50 was over 100 µM.

What about the EC50 ([3]; curve inflection point) of the same compound?
The EC50 was over 100 µM.

And the IC50 [4, 15]?
The IC50 was 37.4 µM.

And the GI50 ([4]; corrected for time zero)?
The GI50 was 21.4 µM.

And the EC50 ([4]; curve inflection point)?
The EC50 was 37.4 µM.

What about the IC50 [5, 15] of the same compound?
Its IC50 is over 100 µM.

And the GI50 ([5]; corrected for time zero)?
Its GI50 is 47.6 µM.

What about the EC50 ([5]; curve inflection point) of the same compound?
The EC50 was over 100 µM.

What about the IC50 [6, 15] of the same compound?
The IC50 was over 100 µM.

What about the GI50 ([6]; corrected for time zero) of the same compound?
Its GI50 is 49.4 µM.

And the EC50 ([6]; curve inflection point)?
The EC50 was over 100 µM.

And the IC50 [7, 15]?
The IC50 was 9.47 µM.

What about the GI50 ([7]; corrected for time zero) of the same compound?
Its GI50 is 9 µM.

And the EC50 ([7]; curve inflection point)?
The EC50 was 9.47 µM.

And the IC50 [8, 15]?
The IC50 was 17.2 µM.

What about the GI50 ([8]; corrected for time zero) of the same compound?
The GI50 was 14.7 µM.

And the EC50 ([8]; curve inflection point)?
The EC50 was 17.2 µM.

And the IC50 [9, 15]?
Its IC50 is over 100 µM.

What about the GI50 ([9]; corrected for time zero) of the same compound?
Its GI50 is over 100 µM.

What about the EC50 ([9]; curve inflection point) of the same compound?
The EC50 was over 100 µM.

What about the IC50 [10, 15] of the same compound?
The IC50 was 42 µM.

And the GI50 ([10]; corrected for time zero)?
The GI50 was 22.3 µM.

And the EC50 ([10]; curve inflection point)?
The EC50 was 42 µM.

What about the IC50 [11, 15] of the same compound?
Its IC50 is over 100 µM.

What about the GI50 ([11]; corrected for time zero) of the same compound?
The GI50 was over 100 µM.

And the EC50 ([11]; curve inflection point)?
The EC50 was over 100 µM.

And the IC50 [12, 15]?
Its IC50 is 15.7 µM.

What about the GI50 ([12]; corrected for time zero) of the same compound?
The GI50 was 12.5 µM.

What about the EC50 ([12]; curve inflection point) of the same compound?
Its EC50 is 15.7 µM.

And the IC50 [13, 15]?
Its IC50 is 82.2 µM.

What about the GI50 ([13]; corrected for time zero) of the same compound?
The GI50 was 25 µM.

What about the EC50 ([13]; curve inflection point) of the same compound?
Its EC50 is 82.2 µM.

And the IC50 [14, 15]?
Its IC50 is 50.7 µM.

And the GI50 ([14]; corrected for time zero)?
The GI50 was 18.9 µM.

What about the EC50 ([14]; curve inflection point) of the same compound?
The EC50 was 50.7 µM.

— article PMC6576746, “Rational discovery of dual-indication multi-target PDE/Kinase inhibitor for precision anti-cancer therapy using structural systems pharmacology” (PLoS Computational Biology, 2019)
